In patent US20150045610A1, “METHOD OF MODIFYING SPERMATOGENESIS, SPERMIOGENESIS AND/OR FERTILITY IN MAMMALS” (Monell Chemical Senses Center, priority 2012, published 2015):

Target: T1, humanized mhT1R3 (Homo sapiens, UniProt Q7RTX0, A109T/A120V/A176D/A197V/A198V/A228S/A231N/A248T/A280V/A282S/A302S/A412V/A417V/A46T/A537T/C375D/D124S/D249S/D250G/D364H/D419E/D470T/D491G/D88A/DEL352-352/DEL488-489/E172D/E199T/E203N/E217D/E356N/E45S/E481Q/E505D/E525K/E545Q/F540P/F555L/G168S/G205S/G311T/G314N/G355L/G360D/G414H/G438R/G439D/G463S/G50T/G542N/H261R/H278R/H281Y/H332P/I485M/I536F/INS376MLQNLSSG/K32Q/K339E/K422L/K494V/K86G/L173R/L245Q/L272V/L29F/L354S/L385Q/L433M/L458M/L483S/L71F/L74M/M151L/M315I/M318V/M31A/N285S/N386L/N532H/N68L/P112S/P246H/P335S/P416H/P420H/P441T/P60I/Q221E/Q257L/Q317R/Q330L/Q336H/Q359L/Q372R/Q418S/Q504K/Q531K/R123Q/R247D/R252Q/R291G/R30K/R357A/R443Q/R467V/R473T/R479Q/R482Q/R486Y/R498Q/R52N/R550K/R553A/R556P/R560K/R56Q/S251Q/S267K/S289H/S290H/S392A/S446A/S447E/S464P/S477T/S490P/S53Q/S559P/S58N/S67P/T195Q/T346A/T377L/T390I/T434S/T480L/T63N/V152I/V277A/V366M/V36I/V381L/V393T/V437A/V465T/V61P/W72L)
T1 construct: the extracellular domain is of mouse origin and the transmembrane and intracellular domains of human origin; mouse T1R3 extracellular domain (fusion partner replacing the human extracellular domain); expressed in transfected cells; host or cells: transgenic mice (Line 7, 9, 7c) on T1R3-null background; transgene under 13 kb T1R3 promoter, followed by IRES-eGFP
T1 sequence (Q7RTX0 with tags, fused parts or gaps L29F/R30K/M31A/K32Q/V36I/E45S/A46T/G50T/R52N/S53Q/R56Q/S58N/P60I/V61P/T63N/S67P/N68L/L71F/W72L/L74M/K86G/D88A/A109T/P112S/A120V/R123Q/D124S/M151L/V152I/G168S/E172D/L173R/A176D/T195Q/A197V/A198V/E199T/E203N/G205S/E217D/Q221E/A228S/A231N/L245Q/P246H/R247D/A248T/D249S/D250G/S251Q/R252Q/Q257L/H261R/S267K/L272V/V277A/H278R/A280V/H281Y/A282S/N285S/S289H/S290H/R291G/A302S/G311T/G314N/M315I/Q317R/M318V/Q330L/H332P/P335S/Q336H/K339E/T346A/DEL352-352/L354S/G355L/E356N/R357A/Q359L/G360D/D364H/V366M/Q372R/C375D/INS376MLQNLSSG/T377L/V381L/L385Q/N386L/T390I/S392A/V393T/A412V/G414H/P416H/A417V/Q418S/D419E/P420H/K422L/L433M/T434S/V437A/G438R/G439D/P441T/R443Q/S446A/S447E/L458M/G463S/S464P/V465T/R467V/D470T/R473T/S477T/R479Q/T480L/E481Q/R482Q/L483S/I485M/R486Y/DEL488-489/S490P/D491G/K494V/R498Q/Q504K/E505D/E525K/Q531K/N532H/I536F/A537T/F540P/G542N/E545Q/R550K/R553A/F555L/R556P/S559P/R560K limits assumed): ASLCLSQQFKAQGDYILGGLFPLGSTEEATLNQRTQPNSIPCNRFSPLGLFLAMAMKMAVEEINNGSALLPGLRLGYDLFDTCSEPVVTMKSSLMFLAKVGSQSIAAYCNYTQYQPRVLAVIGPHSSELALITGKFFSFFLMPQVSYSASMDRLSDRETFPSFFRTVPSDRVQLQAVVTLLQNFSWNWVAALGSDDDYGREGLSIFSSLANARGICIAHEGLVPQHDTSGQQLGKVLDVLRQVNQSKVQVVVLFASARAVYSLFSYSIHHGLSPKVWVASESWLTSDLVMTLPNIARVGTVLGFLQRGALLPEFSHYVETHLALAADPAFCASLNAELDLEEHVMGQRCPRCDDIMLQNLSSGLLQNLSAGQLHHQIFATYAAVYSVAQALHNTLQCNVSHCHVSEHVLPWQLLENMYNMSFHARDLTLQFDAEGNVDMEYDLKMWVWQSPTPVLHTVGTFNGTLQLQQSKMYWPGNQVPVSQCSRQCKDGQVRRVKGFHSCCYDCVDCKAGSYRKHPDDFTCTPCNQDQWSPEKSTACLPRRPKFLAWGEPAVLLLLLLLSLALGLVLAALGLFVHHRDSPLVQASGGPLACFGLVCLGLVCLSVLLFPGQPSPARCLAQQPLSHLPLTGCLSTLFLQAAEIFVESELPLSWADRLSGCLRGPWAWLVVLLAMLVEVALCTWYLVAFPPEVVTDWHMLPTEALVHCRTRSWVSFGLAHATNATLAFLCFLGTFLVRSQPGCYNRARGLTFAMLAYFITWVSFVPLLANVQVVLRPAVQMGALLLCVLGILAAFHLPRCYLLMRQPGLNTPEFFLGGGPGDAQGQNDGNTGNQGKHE
T1 sequence (Q925I4 20-843 partner): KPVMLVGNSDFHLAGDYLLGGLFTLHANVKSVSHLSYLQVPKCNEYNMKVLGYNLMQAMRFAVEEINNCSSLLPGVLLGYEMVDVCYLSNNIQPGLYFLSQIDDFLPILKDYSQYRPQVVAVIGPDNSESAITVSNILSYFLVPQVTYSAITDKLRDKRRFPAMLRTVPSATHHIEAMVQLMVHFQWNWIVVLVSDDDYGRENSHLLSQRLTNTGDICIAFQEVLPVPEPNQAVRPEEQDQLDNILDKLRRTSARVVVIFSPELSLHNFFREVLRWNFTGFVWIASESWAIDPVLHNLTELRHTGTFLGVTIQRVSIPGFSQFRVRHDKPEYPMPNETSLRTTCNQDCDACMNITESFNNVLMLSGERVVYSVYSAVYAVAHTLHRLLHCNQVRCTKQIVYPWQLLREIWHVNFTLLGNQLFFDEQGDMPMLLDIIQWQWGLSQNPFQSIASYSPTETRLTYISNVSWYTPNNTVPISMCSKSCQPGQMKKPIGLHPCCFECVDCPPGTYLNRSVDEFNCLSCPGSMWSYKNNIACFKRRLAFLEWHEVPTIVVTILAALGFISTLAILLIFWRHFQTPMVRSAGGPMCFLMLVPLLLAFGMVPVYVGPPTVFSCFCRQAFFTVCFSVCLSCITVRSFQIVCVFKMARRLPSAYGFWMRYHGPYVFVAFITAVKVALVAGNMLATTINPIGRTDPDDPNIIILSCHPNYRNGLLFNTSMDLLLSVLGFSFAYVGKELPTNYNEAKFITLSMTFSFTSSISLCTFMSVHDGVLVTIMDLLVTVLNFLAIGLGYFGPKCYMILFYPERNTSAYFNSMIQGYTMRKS
Test: sweet taste preference of transgenic mice expressing humanized T1R3
Assay type: in vivo, mouse
Protocol: We used the chimeric mhT1R3 receptor to produce conventional transgenic animals. The DNA construct was injected into a genetically engineered mouse line that lacks endogenous T1R3 (T1R3KO or T1R3-null). […] We call these mice Line7.
For further crosses, we used the line 7 that has fewer copies of the transgene.
Such compounds may be produced normally in organs (e.g. in testis) or chemically synthesized.

Question: How did the “sweet preference of Line 7 mice” value (1 mM clofibric acid) turn out when CC(C)(Oc1ccc(Cl)cc1)C(=O)O [clofibric acid] was run?
Answer: blocked

Question: And the “sweet responses of the transgenic animals” value (lines 7, 9, 7c expressing humanized receptor)?
Answer: completely blocked
